pIC50: −log10 of the molar value.
Key:
[1] = Cytotoxicity against golden hamster BSR-T7 cells assessed as reduction in cell viability measured after 18 to 24 hrs by MTT assay; type: cell-based, Mesocricetus auratus, BSR-T7/5
[2] = system: Western equine encephalitis virus; experiment: Antiviral activity against Western equine encephalitis virus infected in BSR-T7 cells assessed as inhibition of viral genome replicon replication measured after 18 to 24 hrs by luciferase assay; type: functional, organism-based; details: BSR-T7/5
[3] = Antiviral activity against FMV infected in human BE2C cells assessed as reduction in virus-induced cytopathicity at 25 uM relative to control
[4] = Antiviral activity against FMV infected in human BE2C cells assessed as reduction in virus-induced cytopathicity at 5 uM relative to control
[5] = Antiviral activity against FMV infected in human BE2C cells assessed as reduction in virus-induced cytopathicity by measuring cell viability at 25 uM (reference value: 19.6 +/-4%)
[6] = Antiviral activity against FMV infected in human BE2C cells assessed as reduction in virus-induced cytopathicity by measuring cell viability at 5 uM (reference value: 19.6 +/-4%)

## O=C(NCc1ccccc1)C1CCN(C(=O)c2cc3ccccc3n2Cc2ccc(Cl)cc2)CC1
[1]; BSR-T7 cells, time 18-24 hrs
  CC50: > 100 µM
[2]
  pIC50: 4.51

## O=C(NCCc1ccncc1)C1CCN(C(=O)c2cc3ccccc3n2Cc2ccc(Cl)cc2)CC1
[3]
  fold change (FC): 2

## O=C(c1cc2ccccc2n1Cc1ccc(Cl)cc1)N1CCC(/C=C/CCc2ccncc2)CC1
[2]
  pIC50: < 4.30

## Cc1cccc2cc(C(=O)N3CCC(C(=O)NCc4ccccc4)CC3)n(Cc3ccc(Cl)cc3)c12
[1]; bsr-t7/5, time 18-24 hrs
  CC50: > 100 µM
[2]
  pIC50: 4.21

## O=C(CC1CCN(C(=O)c2cc3ccccc3n2Cc2ccc(Cl)cc2)CC1)NCc1ccncc1
[1]; bsr-t7/5, time 18-24 hrs
  CC50: 77.3 µM
[2]
  pIC50: 4.61

## O=C(NCCCc1ccccc1)C1CCN(C(=O)c2cc3ccccc3n2Cc2ccc(Cl)cc2)CC1
[1]; bsr-t7/5, time 18-24 hrs
  CC50: > 50 µM
[2]
  pIC50: < 4.00

## O=C(c1cc2ccccc2n1Cc1ccc(Cl)cc1)N1CCC(/C=C\CCc2ccncc2)CC1
[1]; bsr-t7/5, time 18-24 hrs
  CC50: > 50 µM
[2]
  pIC50: < 4.30

## O=C(c1cc2ccccc2n1Cc1ccc(Cl)cc1)N1CCC(C(=O)N2Cc3ccccc3C2)CC1
[1]; bsr-t7/5, time 18-24 hrs
  CC50: > 100 µM
[2]
  pIC50: < 4.00

## O=C(NCCc1ccncc1)C1=CCN(C(=O)c2cc3ccccc3n2Cc2ccc(Cl)cc2)CC1
[1]; bsr-t7/5, time 18-24 hrs
  CC50: 74.2 µM
[2]
  pIC50: 5.41

## O=C(NCC1CCc2ccccc21)C1CCN(C(=O)c2cc3ccccc3n2Cc2ccc(Cl)cc2)CC1 (stereo not drawn)
[1]; bsr-t7/5, time 18-24 hrs
  CC50: > 100 µM
[2]
  pIC50: 5.15

## Cc1c(C(=O)N2CCC(C(=O)NCc3ccccc3)CC2)n(Cc2ccc(Cl)cc2)c2ccccc12
[1]; bsr-t7/5, time 18-24 hrs
  CC50: > 100 µM
[2]
  pIC50: < 4.00

## O=C(c1cc2ccccc2n1Cc1ccc(Cl)cc1)N1CCC(C(=O)N2CCc3ccccc32)CC1
[1]; bsr-t7/5, time 18-24 hrs
  CC50: > 100 µM
[2]
  pIC50: < 4.00

## O=C(NCCc1ccncc1)[C@H]1[C@@H]2CCN(C(=O)c3cc4ccccc4n3Cc3ccc(Cl)cc3)C[C@@H]21
[1]; bsr-t7/5, time 18-24 hrs
  CC50: > 100 µM
[2]
  pIC50: 4.61

## O=C(NCCc1ccncc1)N1CCN(C(=O)c2cc3ccccc3n2Cc2ccc(Cl)cc2)CC1
[1]; bsr-t7/5, time 18-24 hrs
  CC50: 78 µM
[2]
  pIC50: 4.61

## CN(CCc1ccncc1)C(=O)[C@@H]1C[C@H]2CC[C@@H](C1)N2C(=O)c1cc2ccccc2n1Cc1ccc(Cl)cc1
[1]; bsr-t7/5, time 18-24 hrs
  CC50: 50.9 µM
[2]
  pIC50: 6.02

## O=C(NCCc1ccncc1)C1CC2(C1)CN(C(=O)c1cc3ccccc3n1Cc1ccc(Cl)cc1)C2
[1]; bsr-t7/5, time 18-24 hrs
  CC50: 56.5 µM
[2]
  pIC50: 4.96

## O=C(NCCc1ccncc1)C1CCCN(C(=O)c2cc3ccccc3n2Cc2ccc(Cl)cc2)CC1 (stereo not drawn)
[4]
  fold change (FC): 2
[5]
  Activity: 22.9%
[1]; bsr-t7/5, time 18-24 hrs
  CC50: 41.1 µM
[6]
  Activity: 36.1%
[2]
  pIC50: 6.31

## O=C(c1cc2ccccc2n1Cc1ccc(Cl)cc1)N1CCC(C(=O)N2CCC(c3ccccc3)C2)CC1 (stereo not drawn)
[1]; bsr-t7/5, time 18-24 hrs
  CC50: > 100 µM
[2]
  pIC50: < 4.00

## O=C(CCc1ccncc1)NC1CCN(C(=O)c2cc3ccccc3n2Cc2ccc(Cl)cc2)CC1
[1]; bsr-t7/5, time 18-24 hrs
  CC50: 66.7 µM
[2]
  pIC50: 4.75

## O=C(NC1Cc2ccccc2C1)C1CCN(C(=O)c2cc3ccccc3n2Cc2ccc(Cl)cc2)CC1
[1]; bsr-t7/5, time 18-24 hrs
  CC50: > 100 µM
[2]
  pIC50: < 4.00

## O=C(NCC1Cc2ccccc2C1)C1CCN(C(=O)c2cc3ccccc3n2Cc2ccc(Cl)cc2)CC1
[1]; bsr-t7/5, time 18-24 hrs
  CC50: > 100 µM
[2]
  pIC50: 6.28

## O=C(c1cc2ccccc2n1Cc1ccc(Cl)cc1)N1CC[C@H]2C(=O)N(CCc3ccncc3)C[C@H]2C1
[1]; bsr-t7/5, time 18-24 hrs
  CC50: 61 µM
[2]
  pIC50: 4.61

## O=C(c1cc2ccccc2n1Cc1ccc(Cl)cc1)N1CCC(C(=O)N2CCCC2c2ccccc2)CC1 (stereo not drawn)
[1]; bsr-t7/5, time 18-24 hrs
  CC50: > 100 µM
[2]
  pIC50: < 4.00

## O=C(NC1CCc2ccccc21)C1CCN(C(=O)c2cc3ccccc3n2Cc2ccc(Cl)cc2)CC1 (stereo not drawn)
[1]; bsr-t7/5, time 18-24 hrs
  CC50: > 100 µM
[2]
  pIC50: < 4.00

## CC1(C(=O)NCCc2ccncc2)CCN(C(=O)c2cc3ccccc3n2Cc2ccc(Cl)cc2)CC1
[1]; bsr-t7/5, time 18-24 hrs
  CC50: > 50 µM
[2]
  pIC50: < 4.30

## CC(NC(=O)C1CCN(C(=O)c2cc3ccccc3n2Cc2ccc(Cl)cc2)CC1)C1Cc2ccccc2C1 (racemic)
[1]; bsr-t7/5, time 18-24 hrs
  CC50: > 100 µM
[2]
  pIC50: 5.77

Source: ChEMBL document CHEMBL4811294, “Synthesis and biological activity of conformationally restricted indole-based inhibitors of neurotropic alphavirus replication: Generation of a three-dimensional pharmacophore” (Bioorg Med Chem Lett, 2021)
